Source: PubChem BioAssay (NCI)
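GI50 is the concentration that inhibits growth by half. TGI marks complete inhibition of growth.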

How the values were obtained:
Experiment in all cases: DTP human tumour cell line panel, 384-well format
[1] = system: SF-295 CNS
[2] = system: RPMI-8226 leukemia
[3] = system: NCI-H322M lung
[4] = system: IGROV1 ovarian
[5] = system: MDA-MB-435 melanoma
[6] = system: NCI-H460 NSCLC
[7] = system: LOX IMVI melanoma
[8] = system: UO-31 renal
[9] = system: SW-620 colon
[10] = system: A498 renal
[11] = system: A549 NSCLC
[12] = system: KM12 colon
[13] = system: SK-MEL-28 melanoma
[14] = system: SNB-19 CNS
[15] = system: MOLT-4 leukemia
[16] = system: UACC-257 melanoma
[17] = system: HCT-116 colon
[18] = system: MDA-MB-468 breast
[19] = system: OVCAR-4 ovarian
[20] = system: UACC-62 melanoma
[21] = system: OVCAR-8 ovarian
[22] = system: TK-10 renal
[23] = system: SN12C renal
[24] = system: ACHN renal
[25] = system: HL-60(TB) leukemia
[26] = system: RXF 393 renal
[27] = system: CCRF-CEM leukemia
[28] = system: HOP-62 NSCLC
[29] = system: PC-3 prostate

`Nc1ccc(/C=C/C(=O)NCc2cc3cc(-c4ccc(C(=O)N5CCC(F)(F)CC5)cc4)cc(-c4ccc(F)cc4)c3o2)cn1` gave a GI50 [1] of 188 nM, a TGI [1] of 368 nM and a GI50 [2] of 58.7 nM. It also gave a TGI [2] of 191 nM, a GI50 [3] of 34.7 nM and a TGI [3] of 139 nM. It also gave a GI50 [4] of 131 nM, a TGI [4] of 265 nM and a GI50 [5] of 146 nM. It also gave a TGI [5] of 283 nM, a GI50 [6] of 437 nM and a TGI [6] of 1570 nM. The GI50 [7] was 567 nM, the TGI [7] was 2020 nM and the GI50 [8] was 52.3 nM. For the same compound, the TGI [8] was 174 nM, the GI50 [9] was 23.9 nM and the TGI [9] was 53.4 nM. The GI50 [10] was 2270 nM, the TGI [10] was 33400 nM and the GI50 [11] was 252 nM. For the same compound, the TGI [11] was 699 nM, the GI50 [12] was 58.6 nM and the TGI [12] was 210 nM. For the same compound, the GI50 [13] was 223 nM, the TGI [13] was 410 nM and the GI50 [14] was 28 nM. For the same compound, the TGI [14] was 82 nM, the GI50 [15] was 21.9 nM and the TGI [15] was 39.2 nM. For the same compound, the GI50 [16] was 504 nM, the TGI [16] was 2910 nM and the GI50 [17] was 20.6 nM. It also gave a TGI [17] of 40.7 nM, a GI50 [18] of 190 nM and a TGI [18] of 384 nM. It also gave a GI50 [19] of 212 nM, a TGI [19] of 472 nM and a GI50 [20] of 206 nM. For the same compound, the TGI [20] was 427 nM, the GI50 [21] was 16.8 nM and the TGI [21] was 32.8 nM. For the same compound, the GI50 [22] was 210 nM, the TGI [22] was 404 nM and the GI50 [23] was 17.6 nM. For the same compound, the TGI [23] was 32 nM, the GI50 [24] was 121 nM and the TGI [24] was 348 nM. For the same compound, the GI50 [25] was 22.8 nM, the TGI [25] was 37.6 nM and the GI50 [26] was 105 nM. The TGI [26] was 255 nM, the GI50 [27] was 21.4 nM and the TGI [27] was 37.2 nM. It also gave a GI50 [28] of 65.6 nM, a TGI [28] of 242 nM and a GI50 [29] of 48.1 nM.
